Assay results as given in publication PMC7914897, “Cytotoxic Potential of a-Azepano- and 3-Amino-3,4-SeCo-Triterpenoids” (International Journal of Molecular Sciences, 2021).
Where two headings read alike, the source gives them in different places.

How the values were obtained:
[1] = tested on: panel of approximately 60 cancer cell lines; experiment: NCI-60 screen (SRB, 48 h), full panel; settings: for activity at 10 µM: Homo sapiens, 48 h
MCF-7 (breast carcinoma) = experiment: SRB cytotoxicity assay, 72 h; format: cell-based, human; settings: Homo sapiens, MCF7; MCF-7, 72 h, cut-off 30 µM; read-out: EC50
Description: (§1) The cytotoxicity of compounds 1–20 was evaluated by means of a colorimetric sulforhodamine B (SRB) assay. For all compounds, the EC50 values were determined for the human tumor cell lines A375 (malignant melanoma), HT29 (colorectal carcinoma), MCF-7 (breast carcinoma), A2780 (ovarian carcinoma), FaDu (hypopharyngeal carcinoma), and NIH 3T3 (non-malignant mouse fibroblasts).
(§2) In short, exponentially growing cells were seeded into 96-well plates on day 0 at the appropriate cell densities to prevent confluence of the cells during the period of experiment. After 24 h, the cells were treated with serial dilutions of the compounds (0–30 µM) for 72 h. The final concentration of DMSO never exceeded 0.5%, which was non-toxic to the cells. After a 72 h treatment, the supernatant medium from the 96-well plates was discarded, and the cells were fixed with 10% TCA. For a thorough fixation, the plates were allowed to rest at 4 °C. After fixation, the cells were washed in a strip washer. The washing was done four times with water using alternate dispensing and aspiration procedures. The plates were then dyed with 100 µL of 0.4% SRB for about 20 min. After dying, the plates were washed with 1% acetic acid to remove the excess of the dye and allowed to air-dry overnight. Tris base solution (200 µL, 10 mM) was added to each well and absorbance was measured at λ = 570 nm (using a 96 well plate reader, Tecan Spectra, Crailsheim, Germany). The percentages of surviving cells relative to untreated controls were determined.

[2] = tested on: FaDu (hypopharyngeal carcinoma); experiment: SRB cytotoxicity assay, 72 h; format: cell-based, human; settings: Homo sapiens, cut-off 30 µM, read-out: EC50
Description: as §1, §2

[3] = tested on: HT29 (colorectal carcinoma); experiment: SRB cytotoxicity assay, 72 h; format: cell-based, human; settings: Homo sapiens, HT-29; HT29, 72 h, cut-off 30 µM; read-out: EC50
Description: as §1, §2

[4] = tested on: A375 (malignant melanoma); experiment: SRB cytotoxicity assay, 72 h; format: cell-based, human; settings: Homo sapiens, A-375, 72 h, A375, 72 h, cut-off 30 µM; read-out: EC50
Description: as §1, §2

[5] = tested on: A2780 (ovarian carcinoma); experiment: SRB cytotoxicity assay, 72 h; format: cell-based, human; settings: Homo sapiens; A2780, 72 h, cut-off 30 µM; read-out: EC50
Description: as §1, §2

[6] = tested on: NIH 3T3 (non-malignant mouse fibroblasts); experiment: SRB cytotoxicity assay, 72 h; format: cell-based; settings: Mus musculus, NIH3T3; NIH 3T3, 72 h, cut-off 30 µM; read-out: EC50
Description: as §1, §2

COLO 205 (Colon cancer) = experiment: NCI-60 screen (SRB, 48 h); settings: COLO 205, 1 dose 10 µM
SR (Leukemia) [7] = experiment: NCI-60 screen (SRB, 48 h); format: cell-based; settings: 1 dose 10 µM
RXF 393 (Renal cancer) = tested on: RXF 393 (Renal cancer); design: method as in earlier work; settings: cited from earlier work
[8] = tested on: MDA-MB-31/ATCC (Breast cancer); design: method as in earlier work; settings: cited from earlier work
OVCAR-8 (Ovarian cancer) = tested on: OVCAR-8 (Ovarian cancer); design: method as in earlier work; settings: cited from earlier work
SF-268 (CNS cancer) = tested on: SF-268 (CNS cancer); design: method as in earlier work; settings: cited from earlier work
SNB-75 (CNS cancer) = tested on: SNB-75 (CNS cancer); design: method as in earlier work; settings: cited from earlier work
ACHN (Renal cancer) = tested on: ACHN (Renal cancer); design: method as in earlier work; settings: cited from earlier work
CNS cancer subpanel = tested on: CNS cancer subpanel; design: method as in earlier work; settings: standard drugs, read-out: GI50 MG_MID; cited from earlier work
EKVX (NSC lung cancer) = tested on: EKVX (NSC lung cancer); design: method as in earlier work; settings: cited from earlier work
SN12C (Renal cancer) = tested on: SN12C (Renal cancer); design: method as in earlier work; settings: cited from earlier work
CCRF-CEM (Leukemia) = tested on: CCRF-CEM (Leukemia); design: method as in earlier work; settings: cited from earlier work
[9] = tested on: NCI-H460 (NSC lung cancer); design: method as in earlier work; settings: cited from earlier work
HCT-116 (Colon cancer) = tested on: HCT-116 (Colon cancer); design: method as in earlier work; settings: cited from earlier work
SF-295 (CNS cancer) = tested on: SF-295 (CNS cancer); design: method as in earlier work; settings: cited from earlier work
RPMI-8226 (Leukemia) = tested on: RPMI-8226 (Leukemia); design: method as in earlier work; settings: cited from earlier work
U251 (CNS cancer) = tested on: U251 (CNS cancer); design: method as in earlier work; settings: cited from earlier work
[10] = tested on: NCI-H23 (NSC lung cancer); design: method as in earlier work; settings: cited from earlier work
Leukemia subpanel = tested on: Leukemia subpanel; design: method as in earlier work; settings: standard drugs, read-out: GI50 MG_MID; cited from earlier work
A498 (Renal cancer) = tested on: A498 (Renal cancer); design: method as in earlier work; settings: cited from earlier work
LOX IMVI (Melanoma) = tested on: LOX IMVI (Melanoma); design: method as in earlier work; settings: cited from earlier work
SNB-19 (CNS cancer) = tested on: SNB-19 (CNS cancer); design: method as in earlier work; settings: cited from earlier work
[11] = tested on: NCI-H522 (NSC lung cancer); design: method as in earlier work; settings: cited from earlier work
SR (Leukemia) [12] = tested on: SR (Leukemia); design: method as in earlier work; settings: cited from earlier work
SK-MEL-5 (Melanoma) = tested on: SK-MEL-5 (Melanoma); design: method as in earlier work; settings: cited from earlier work
SW-620 (Colon cancer) = tested on: SW-620 (Colon cancer); design: method as in earlier work; settings: cited from earlier work
HOP-62 (NSC lung cancer) = tested on: HOP-62 (NSC lung cancer); design: method as in earlier work; settings: cited from earlier work
HOP-92 (NSC lung cancer) = tested on: HOP-92 (NSC lung cancer); design: method as in earlier work; settings: cited from earlier work
MOLT-4 (Leukemia) = tested on: MOLT-4 (Leukemia); design: method as in earlier work; settings: cited from earlier work
[13] = tested on: MDA-MB-468 (Breast cancer); design: method as in earlier work; settings: cited from earlier work
T-47D (Breast cancer) = tested on: T-47D (Breast cancer); design: method as in earlier work; settings: cited from earlier work
MCF7 (Breast cancer) = tested on: MCF7 (Breast cancer); design: method as in earlier work; settings: cited from earlier work
[14] = tested on: A549/ATCC (NSC lung cancer); design: method as in earlier work; settings: cited from earlier work
[15] = tested on: NCI-H226 (NSC lung cancer); design: method as in earlier work; settings: cited from earlier work
[16] = tested on: panel of approximately 60 cancer cell lines; design: method as in earlier work; settings: standard drugs; read-out: GI50 MG_MID60; cited from earlier work

## CC1(C)NCCC[C@]2(C)[C@H]3CC=C4[C@@H]5C[C@@](C)(CO)CC[C@]5(C)CC[C@@]4(C)[C@]3(C)CC[C@@H]12 [Compound 5, azepano-glycyrretol]
[1]; 1 dose 10 µM
  Positive Cytostatic Effect (cell lines with percent growth 0 to 50 / total): 13/58
  Positive Cytotoxic Effect (cell lines with percent growth < 0 / total): 2/58
  number of cancer cell lines the compound was active against: 8 cell lines
[1]; read-out: Mean Growth, %
  activity at 10 µM: 56.2%
[1]; read-out: Range of Growth, %
  activity at 10 µM: -4.98 to 98.9%
MCF-7 (breast carcinoma)
  EC50: 5680 ± 500 nM
[2]
  EC50: 4810 ± 900 nM
[3]
  EC50: 3970 ± 400 nM
[4]
  EC50: 5690 ± 400 nM
[5]
  EC50: 6360 ± 600 nM
[6]
  EC50: 7430 ± 1200 nM
COLO 205 (Colon cancer)
  Growth % of the Most Sensitive Cell Lines: −4.98%
SR (Leukemia) [7]
  Growth % of the Most Sensitive Cell Lines: −1.30%

## C=C(C)[C@@H]1CC[C@]2(C)[C@H](CC=C3[C@@H]4CC(C)(C)CC[C@]4(CO)CC[C@]32C)[C@@]1(C)CCCN [Compound 18]
MCF-7 (breast carcinoma)
  EC50: 2650 ± 200 nM
[2]
  EC50: 3340 ± 300 nM
[3]
  EC50: 1720 ± 200 nM
[4]
  EC50: 3380 ± 200 nM
[5]
  EC50: 4000 ± 200 nM
[6]
  EC50: 4020 ± 700 nM

## C=C(C)[C@@H]1CC[C@]2(C(=O)NC3CCCCC3)CC[C@]3(C)[C@H](CC[C@@H]4[C@@]5(C)CCCNC(C)(C)[C@@H]5CC[C@]43C)[C@@H]12 [Compound 10]
MCF-7 (breast carcinoma)
  EC50: 1900 ± 100 nM
[2]
  EC50: 2040 ± 100 nM
[3]
  EC50: 980 ± 100 nM
[4]
  EC50: 2180 ± 200 nM
[5]
  EC50: 2270 ± 400 nM
[6]
  EC50: 1500 ± 200 nM

## COc1cccc2c1C(=O)c1c(O)c3c(c(O)c1C2=O)C[C@@](O)(C(=O)CO)C[C@@H]3O[C@H]1C[C@H](N)[C@H](O)[C@H](C)O1 [DRB, doxorubicin]
RXF 393 (Renal cancer)
  GI50: 100 nM
[8]
  GI50: 510 nM
OVCAR-8 (Ovarian cancer)
  GI50: 100 nM
SF-268 (CNS cancer)
  GI50: 100 nM
SNB-75 (CNS cancer)
  GI50: 70 nM
ACHN (Renal cancer)
  GI50: 80 nM
CNS cancer subpanel
  GI50: 80 nM
EKVX (NSC lung cancer)
  GI50: 410 nM
SN12C (Renal cancer)
  GI50: 70 nM
CCRF-CEM (Leukemia)
  GI50: 80 nM
[9]
  GI50: 20 nM
HCT-116 (Colon cancer)
  GI50: 80 nM
SF-295 (CNS cancer)
  GI50: 100 nM
RPMI-8226 (Leukemia)
  GI50: 80 nM
U251 (CNS cancer)
  GI50: 40 nM
[10]
  GI50: 150 nM
Leukemia subpanel
  GI50: 80 nM
A498 (Renal cancer)
  GI50: 100 nM
LOX IMVI (Melanoma)
  GI50: 70 nM
SNB-19 (CNS cancer)
  GI50: 40 nM
[11]
  GI50: 30 nM
SR (Leukemia) [12]
  GI50: 30 nM
SK-MEL-5 (Melanoma)
  GI50: 80 nM
SW-620 (Colon cancer)
  GI50: 90 nM
HOP-62 (NSC lung cancer)
  GI50: 70 nM
HOP-92 (NSC lung cancer)
  GI50: 100 nM
MOLT-4 (Leukemia)
  GI50: 30 nM
[13]
  GI50: 50 nM
T-47D (Breast cancer)
  GI50: 60 nM
MCF7 (Breast cancer)
  GI50: 30 nM
[14]
  GI50: 60 nM
[15]
  GI50: 50 nM
[16]
  GI50: 380 nM
